In patent publication US6255273A, “Hydrofluoropolyether-based azeotropic or near azeotropic compositions” (Ausimont S.p.A., priority 1998, dated 2001):

Experiments:
[1] = oily product removal from molded circuits, oil (4); details: 23° C.; methyl alcohol mixture 51° C., tDCE mixture 25° C., acetone mixture 66° C.; 5 min dipping
Description: (§1) The oily product removal capacity from molded circuits has been verified according to the following method: a known amount of an oily product is uniformly spread on the molded circuit surface having 35×19 mm sizes; 0.100 g of oil are spread on a single surface of the circuit, then the article is dipped in the solution to be tested.
(§2) After 5 minutes of dipping, the circuit is allowed to drie for further 5 minutes at room temperature so as to remove the solvent traces and then it is weighed again on an analytical balance.
(§3) The following oily products have been used:
4) Mineral-Clavus 32 oil by SHELL.
(§4) Tests are carried out at room temperature (23-250° C.) and tests at the boiling temperature of the solvent mixtures. In the latter case the solvent is placed in a vessel equipped with a refrigerant under reflux which recovers the vapour of the boiling solution.
(§5) In all the tests 30 ml of solvent solution have been used.

[2] = background; cited from earlier work
[3] = oily product removal from molded circuits, oil (3); details: 23° C.; methyl alcohol mixture 51° C., tDCE mixture 25° C., acetone mixture 66° C.; 5 min dipping
Description: as §1, §2, §3
3) Ester-Icematic SW 100 oil by CASTROL
as §4, §5

[4] = oily product removal from molded circuits, oil (1); details: 23° C.; methyl alcohol mixture 51° C., tDCE mixture 25° C., acetone mixture 66° C.; 5 min dipping
Description: as §1, §2, §3
1) Alkyl Benzene-Zerice S 46 oil by ESSO
as §4, §5

[5] = water removal from glass surfaces; details: with 600 ppm by weight surfactant; CFC 113 42° C., HCFC123 mixture 23° C., tDCE mixture 35° C.
Description: In a cylindrical container having a 46 cm diameter and a 56 cm height, equipped with a neoprene closing stopper (cover), 30 ml of the solution to be tested are introduced.
The compositions, indicated in Table 22, used for the water removal tests are prepared in a 50 ml flask and are heated in a thermostatic bath at a temperature of about 5° C. lower than the boiling temperature of the solution itself.
After heating the solution is transferred in the test container equipped with cover.
On a glass surface having 37×25×1 mm sizes, 0.015 g of water are deposited in the form of small drops.
The glass is placed on a metal frame which is used to carry out the article dipping in the liquid phase of the solution to be tested.
The container for the test is opened and the frame is slowly dipped into the solution; the frame upper part runs in a hole made in the rubber cover (cap) which closes the container.
When two minutes have elapsed, the frame is lifted from the liquid phase, by letting run the external end part through the hole present in the cover (cap); the glass will remain exposed to the solution vapours for one minute, then it is removed from the container and weighed.

[6] = oily product removal from molded circuits, oil (2); details: 23° C.; methyl alcohol mixture 51° C., tDCE mixture 25° C., acetone mixture 66° C.; 5 min dipping
Description: as §1, §2, §3, §4, §5

[7] = Kauri-butanol index, modified ASTM D1133-86; type: physicochemical
Description: The solvent effect of the HFPE-based mixtures is evaluated by determination of the Kauri-butanol index, reported in Table 19, according to ASTM […]-86 method. […] The Kauri-butanol solution is stirred by a magnetic stirrer. The end titration point is identified in connection with a diffused turbidity which appears in the Kauri-butanol solution due to the resin separation.

rats [8] = test: Acute toxicity in rats by inhalation; type: in vivo; details: 4 hours
[9] = Hydrofluoropolyether chemical-physical characteristics (Table 1); type: physicochemical; details: for BOILING TEMPERATURE / Evaporation latent heat: at 1.013 bar; for Isotherm evaporation speed / Surface pressure: at 20° C.; for Liquid density: at 25° C.; for Flammability in air: in air (% volume)
[10] = evaluation of the boiling temperature at the pressure of 1.013 bar (binary mixtures); type: physicochemical
rats [11] = test: Acute toxicity in rats per os; type: in vivo; design: unit not given here
[12] = Table 2, HCF2 OCF2 OCF2 H/HCFC 123, number in label = % by wt. HCF2 OCF2 OCF2 H
[13] = Table 7, HCF2 OCF2 OCF2 H/HFC 356 ffa, number in label = % by wt. HCF2 OCF2 OCF2 H
[14] = Table 6, HCF2 OCF2 OCF2 H/HFC 365 mfc, number in label = % by wt. HCF2 OCF2 OCF2 H
[15] = Table 5, HCF2 OCF2 OCF2 H/acetone, number in label = % by wt. HCF2 OCF2 OCF2 H
[16] = Table 8, HCF2 OCF2 OCF2 H/metoxymethyl methyl ether, number in label = % by wt. HCF2 OCF2 OCF2 H
[17] = Table 10, HCF2 OCF2 OCF2 H/tDCE, number in label = % by wt. HCF2 OCF2 OCF2 H
[18] = Table 12, HCF2 OCF2 CF2 OCF2 H/acetone, number in label = % by wt. HCF2 OCF2 CF2 OCF2 H
[19] = Table 13, HCF2 OCF2 CF2 OCF2 H/methyl alcohol, number in label = % by wt. HCF2 OCF2 CF2 OCF2 H
[20] = Table 15, HCF2 OCF2 CF2 OCF2 H/tDCE, number in label = % by wt. HCF2 OCF2 CF2 OCF2 H
[21] = Table 16, HCF2 OCF2 CF2 OCF2 H/ethyl alcohol, number in label = % by wt. HCF2 OCF2 CF2 OCF2 H

SMILES: FC(F)(Cl)C(F)(Cl)Cl [CFC 113, 1,1,2-trichloro-1,2,2-trifluoroethane]
- Percentage of removed oil, oil (4) Mineral-Clavus 32 [1]: 100 % by weight
- flammability [2]: non flammable
- stability [2]: stable
- toxicity [2]: non toxic
- Percentage of removed oil, oil (3) Ester-Icematic SW 100 [3]: 100 % by weight
- Percentage of removed oil, oil (1) Alkyl Benzene-Zerice S 46 [4]: 100 % by weight
- removed water [5]: 100 % by weight
- Percentage of removed oil, oil (2) FluoroSilicone-FS 1265 [6]: 99.5 % by weight
- Kauri-butanol index [7]: 31
- Acute toxicity in rats by inhalation, LC50 (rats [8]): 50000 ppmv/4 hours
- BOILING TEMPERATURE [9]: 47.55 °C
- Evaporation latent heat [9]: 144 kJ/kg
- Isotherm evaporation speed [9]: 1 mg/min
- Surface pressure [9]: 18.1 dynes/cm
- Liquid density [9]: 1.56 g/mL
- Flammability in air [9]: non

SMILES: FC(F)(F)C(Cl)Cl [HCFC 123, 1,1-dichloro-2,2,2-trifluoroethane, reference compound]
- BOILING TEMPERATURE [10, 12]: 27.54 °C

SMILES: CC(F)(Cl)Cl [HCFC 141b]
- flammability [2]: moderately flammable

SMILES: FC(F)(F)CCC(F)(F)F [HFC 356 ffa, 1,1,1,4,4,4-hexafluorobutane, reference compound]
- BOILING TEMPERATURE [10, 13]: 24.71 °C

SMILES: CC(F)(F)CC(F)(F)F [HFC 365 mfc, 1,1,1,3,3-pentafluorobutane, reference compound]
- BOILING TEMPERATURE [10, 14]: 40.09 °C

SMILES: FC(F)OC(F)(F)OC(F)F [HFPE1, difluoromethoxy-bis(difluoromethyl ether)]
- BOILING TEMPERATURE [10, 12]: 35.39 °C
- BOILING TEMPERATURE ([10]; Table 3, HCF2 OCF2 OCF2 H/n-pentane, number in label = % by weight HCF2 OCF2 OCF2 H): 35.39 °C
- BOILING TEMPERATURE ([10]; Table 4, HCF2 OCF2 OCF2 H/iso-pentane, number in label = % by wt. HCF2 OCF2 OCF2 H): 35.39 °C
- BOILING TEMPERATURE [10, 15]: 35.39 °C
- BOILING TEMPERATURE [10, 14]: 35.39 °C
- BOILING TEMPERATURE [10, 13]: 35.39 °C
- BOILING TEMPERATURE [10, 16]: 35.39 °C
- BOILING TEMPERATURE ([10]; Table 9, HCF2 OCF2 OCF2 H/n-hexane, number in label = % by wt. HCF2 OCF2 OCF2 H): 35.39 °C
- BOILING TEMPERATURE [10, 17]: 35.39 °C
- Acute toxicity in rats per os, LD50 (rats [11]): > 5000
- Acute toxicity in rats by inhalation, LC50 (rats [8]): > 32000 ppmv/4 hours
- BOILING TEMPERATURE [9]: 35.39 °C
- Evaporation latent heat [9]: 165 kJ/kg
- Isotherm evaporation speed [9]: 1.5 mg/min
- Surface pressure [9]: 14.0 dynes/cm
- Liquid density [9]: 1.54 g/mL
- Flammability in air [9]: non flammable

SMILES: FC(F)OC(F)(F)C(F)(F)OC(F)F [HFPE2, 1-difluoromethoxy-1,1,2,2-tetrafluoroethyl difluoromethyl ether]
- BOILING TEMPERATURE ([10]; Table 11, HCF2 OCF2 CF2 OCF2 H/n-pentane, number in label = % by wt. HCF2 OCF2 CF2 OCF2 H): 58.21 °C
- BOILING TEMPERATURE [10, 18]: 58.21 °C
- BOILING TEMPERATURE [10, 19]: 58.21 °C
- BOILING TEMPERATURE ([10]; Table 14, HCF2 OCF2 CF2 OCF2 H/n-hexane, number in label = % by wt. HCF2 OCF2 CF2 OCF2 H): 58.21 °C
- BOILING TEMPERATURE [10, 20]: 58.21 °C
- BOILING TEMPERATURE [10, 21]: 58.21 °C
- Acute toxicity in rats per os, LD50 (rats [11]): > 5000
- Acute toxicity in rats by inhalation, LC50 (rats [8]): > 32000 ppmv/4 hours
- BOILING TEMPERATURE [9]: 58.21 °C
- Evaporation latent heat [9]: 139 kJ/kg
- Isotherm evaporation speed [9]: 0.6 mg/min
- Surface pressure [9]: 15.5 dynes/cm
- Liquid density [9]: 1.60 g/mL
- Flammability in air [9]: non flammable

SMILES: CC(C)=O [acetone, dimethyl ketone, reference compound]
- BOILING TEMPERATURE [10, 15]: 56.50 °C
- BOILING TEMPERATURE [10, 18]: 56.50 °C

SMILES: CCO [ethyl alcohol, reference compound]
- BOILING TEMPERATURE [10, 21]: 78.50 °C

SMILES: CO [methyl alcohol, reference compound]
- BOILING TEMPERATURE [10, 19]: 65.00 °C

SMILES: COCOC [metoxymethyl methyl ether, methoxymethyl methyl ether, reference compound]
- BOILING TEMPERATURE [10, 16]: 41.96 °C

SMILES: Cl/C=C/Cl [tDCE, trans 1,2-dichloroethylene, reference compound]
- BOILING TEMPERATURE [10, 17]: 46.70 °C
- BOILING TEMPERATURE [10, 20]: 46.79 °C
